Reference: publication PMC9505425, “Targeting of the Mitochondrial TET1 Protein by Pyrrolo[3,2-b]pyrrole Chelators” (International Journal of Molecular Sciences, 2022)
Several values for one entry are separate records, joined by “and”; a condition that tells them apart may be missing. Equal values may be shown once.

Columns and labels:
[1] = test system: H-1299 cells; assay: MTT cytotoxicity assay, H-1299; type: cell-based, human
Procedure, shortened: (§1)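 Cells seeded at 1.0 × 10^5/well, grown 24 h, then exposed 48 h to compounds at 0.1–20 μM (≤1% DMSO); U118-MG in DMEM, H1299 in RPMI 1640, both with 10% FBS, 37 °C. MTT 2 h, formazan in DMSO read at 570 nm; IC50 relative to untreated cells (100%).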

[2] = test system: U-118 MG cells; assay: MTT cytotoxicity assay, U-118 MG; type: cell-based, human; details: 48 h
Procedure, shortened: as §1

[3] = test system: BT-20 cells; assay: MTT cytotoxicity assay, BT-20; type: cell-based, human
Procedure, shortened: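 BT-20 human breast cells seeded 24 h, then treated 48 h with compound at 0.1–20 μM (DMSO below 1%). Viability by MTT (2 h, formazan in DMSO, A570) against untreated cells as 100%; IC50 from four replicates per test, three independent repeats.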

Cc1ccc(-n2c(-c3ccc(C(=O)N/N=C/c4ccccc4O)cc3)cc3c2cc(-c2ccc(C(=O)N/N=C/c4ccccc4O)cc2)n3-c2ccc(C)cc2)cc1 [Compound 6]
Cell viability % ([1]; H-1299, 100 nM, 48 h, repeats, 0.1 µM): 77.16% and 73.27%
Cell viability % ([1]; H-1299, 500 nM, 48 h, repeats, 0.5 µM): 69.88% and 74.98%
Cell viability % ([1]; H-1299, 750 nM, 48 h, repeats, 0.75 µM): 83.61% and 74.75%
Cell viability % ([1]; H-1299, 1 uM, 48 h, repeats, 1 µM): 86.38% and 69.89% and 61.2%
Cell viability % ([1]; H-1299, 2.5 uM, 48 h, repeats, 2.5 µM): 77.45% and 63.25% and 56.68%
Cell viability % ([1]; H-1299, 5 uM, 48 h, repeats, 5 µM): 69.4% and 77.63% and 53.79%
Cell viability % ([1]; H-1299, 7.5 uM, 48 h, repeats, 7.5 µM): 53.98% and 50.36%
Cell viability % ([1]; H-1299, 10 uM, 48 h, repeats, 10 µM): 52.11% and 46.79%
Cell viability % ([1]; H-1299, 15 uM, 48 h, repeats, 15 µM): 36.42% and 29.24%
Cell viability % ([1]; H-1299, 20 uM, 48 h, repeats, 20 µM): 33.42% and 31.6%
viability at 0.1 µM ([1]; Homo sapiens, NCI-H1299, 48 h, H-1299, 100 nM, repeats, read-out: Cell viability %): 74.6%
viability at 0.5 µM ([1]; Homo sapiens, NCI-H1299, 48 h, H-1299, 500 nM, repeats, read-out: Cell viability %): 82%
viability at 0.75 µM ([1]; Homo sapiens, NCI-H1299, 48 h, H-1299, 750 nM, repeats, read-out: Cell viability %): 90.2%
viability at 7.5 µM ([1]; Homo sapiens, NCI-H1299, 48 h, H-1299, 7.5 uM, repeats, read-out: Cell viability %): 63.7%
viability at 10 µM ([1]; Homo sapiens, NCI-H1299, 48 h, H-1299, 10 uM, repeats, read-out: Cell viability %): 54.8%
viability at 15 µM ([1]; Homo sapiens, NCI-H1299, 48 h, H-1299, 15 uM, repeats, read-out: Cell viability %): 38.7%
viability at 20 µM ([1]; Homo sapiens, NCI-H1299, 48 h, H-1299, 20 uM, repeats, read-out: Cell viability %): 34.4%
IC50 ([1]; Homo sapiens, NCI-H1299, MTT, 48 h): 14.6 µM
viability at 0.1 µM ([2]; Homo sapiens, U-118-MG, U-118 MG, 100 nM, repeats, read-out: Cell viability %): 98.1%
viability at 0.5 µM ([2]; Homo sapiens, U-118-MG, U-118 MG, 500 nM, repeats, read-out: Cell viability %): 73.5%
viability at 0.75 µM ([2]; Homo sapiens, U-118-MG, U-118 MG, 750 nM, repeats, read-out: Cell viability %): 67.2%
viability at 1 µM ([2]; Homo sapiens, U-118-MG, U-118 MG, 1 uM, repeats, read-out: Cell viability %): 68.4%
viability at 2.5 µM ([2]; Homo sapiens, U-118-MG, U-118 MG, 2.5 uM, repeats, read-out: Cell viability %): 63%
viability at 5 µM ([2]; Homo sapiens, U-118-MG, U-118 MG, 5 uM, repeats, read-out: Cell viability %): 59%
viability at 7.5 µM ([2]; Homo sapiens, U-118-MG, U-118 MG, 7.5 uM, repeats, read-out: Cell viability %): 45.9%
viability at 10 µM ([2]; Homo sapiens, U-118-MG, U-118 MG, 10 uM, repeats, read-out: Cell viability %): 49.6%
viability at 15 µM ([2]; Homo sapiens, U-118-MG, U-118 MG, 15 uM, repeats, read-out: Cell viability %): 28%
viability at 20 µM ([2]; Homo sapiens, U-118-MG, U-118 MG, 20 uM, repeats, read-out: Cell viability %): 22.5%
IC50 ([2]; Homo sapiens, U-118-MG, MTT): 8.12 µM
Cell viability % ([2]; U-118 MG, 100 nM, repeats, 0.1 µM): 91.37% and 92.92%
Cell viability % ([2]; U-118 MG, 500 nM, repeats, 0.5 µM): 83.7778% and 86.55%
Cell viability % ([2]; U-118 MG, 750 nM, repeats, 0.75 µM): 73.07% and 81.93%
Cell viability % ([2]; U-118 MG, 1 uM, repeats): 80.41% and 81.53%
Cell viability % ([2]; U-118 MG, 2.5 uM, repeats): 69.75% and 76.68%
Cell viability % ([2]; U-118 MG, 5 uM, repeats): 63.22% and 58.23%
Cell viability % ([2]; U-118 MG, 7.5 uM, repeats): 45.4% and 56.877%
Cell viability % ([2]; U-118 MG, 10 uM, repeats): 51.17% and 52.19%
Cell viability % ([2]; U-118 MG, 15 uM, repeats): 29.06% and 32.78%
Cell viability % ([2]; U-118 MG, 20 uM, repeats): 18.64% and 22.51%
melting point: 332 to 333 °C
Cell viability % ([3]; BT-20, 100 nM, 48 h, repeats, 0.1 µM): 95.0647% and 99.24%
Cell viability % ([3]; BT-20, 500 nM, 48 h, repeats, 0.5 µM): 79.35% and 86.49%
Cell viability % ([3]; BT-20, 750 nM, 48 h, repeats, 0.75 µM): 84.44% and 98.05%
Cell viability % ([3]; BT-20, 1 uM, 48 h, repeats, 1 µM): 79.3% and 90.76%
Cell viability % ([3]; BT-20, 2.5 uM, 48 h, repeats, 2.5 µM): 84.17% and 92.79%
Cell viability % ([3]; BT-20, 5 uM, 48 h, repeats, 5 µM): 70.3% and 79.42%
Cell viability % ([3]; BT-20, 7.5 uM, 48 h, repeats, 7.5 µM): 49.86% and 58.52%
Cell viability % ([3]; BT-20, 10 uM, 48 h, repeats, 10 µM): 29.6118% and 40.92%
Cell viability % ([3]; BT-20, 15 uM, 48 h, repeats, 15 µM): 26.72% and 42.11%
Cell viability % ([3]; BT-20, 20 uM, 48 h, repeats, 20 µM): 24.04% and 23.03%
viability at 0.1 µM ([3]; Homo sapiens, BT-20, 48 h, BT-20, 100 nM, repeats, read-out: Cell viability %): 104%
viability at 0.5 µM ([3]; Homo sapiens, BT-20, 48 h, BT-20, 500 nM, repeats, read-out: Cell viability %): 79.9%
viability at 0.75 µM ([3]; Homo sapiens, BT-20, 48 h, BT-20, 750 nM, repeats, read-out: Cell viability %): 85.1%
viability at 1 µM ([3]; Homo sapiens, BT-20, 48 h, BT-20, 1 uM, repeats, read-out: Cell viability %): 91.2%
viability at 2.5 µM ([3]; Homo sapiens, BT-20, 48 h, BT-20, 2.5 uM, repeats, read-out: Cell viability %): 89.2%
viability at 5 µM ([3]; Homo sapiens, BT-20, 48 h, BT-20, 5 uM, repeats, read-out: Cell viability %): 85.8%
viability at 7.5 µM ([3]; Homo sapiens, BT-20, 48 h, BT-20, 7.5 uM, repeats, read-out: Cell viability %): 50.5%
viability at 10 µM ([3]; Homo sapiens, BT-20, 48 h, BT-20, 10 uM, repeats, read-out: Cell viability %): 36.2%
viability at 15 µM ([3]; Homo sapiens, BT-20, 48 h, BT-20, 15 uM, repeats, read-out: Cell viability %): 37.8%
viability at 20 µM ([3]; Homo sapiens, BT-20, 48 h, BT-20, 20 uM, repeats, read-out: Cell viability %): 18.8%
IC50 ([3]; Homo sapiens, BT-20, MTT, 48 h): 9.84 µM
